The record followed here is US20050054770A1, “Helicomimetics and stabilized lxxll peptidomimetics” (priority 2001, published 2005).

The target in one experiment is T1, ER alpha (Homo sapiens, UniProt P03372).
T1 sequence (P03372 1-595): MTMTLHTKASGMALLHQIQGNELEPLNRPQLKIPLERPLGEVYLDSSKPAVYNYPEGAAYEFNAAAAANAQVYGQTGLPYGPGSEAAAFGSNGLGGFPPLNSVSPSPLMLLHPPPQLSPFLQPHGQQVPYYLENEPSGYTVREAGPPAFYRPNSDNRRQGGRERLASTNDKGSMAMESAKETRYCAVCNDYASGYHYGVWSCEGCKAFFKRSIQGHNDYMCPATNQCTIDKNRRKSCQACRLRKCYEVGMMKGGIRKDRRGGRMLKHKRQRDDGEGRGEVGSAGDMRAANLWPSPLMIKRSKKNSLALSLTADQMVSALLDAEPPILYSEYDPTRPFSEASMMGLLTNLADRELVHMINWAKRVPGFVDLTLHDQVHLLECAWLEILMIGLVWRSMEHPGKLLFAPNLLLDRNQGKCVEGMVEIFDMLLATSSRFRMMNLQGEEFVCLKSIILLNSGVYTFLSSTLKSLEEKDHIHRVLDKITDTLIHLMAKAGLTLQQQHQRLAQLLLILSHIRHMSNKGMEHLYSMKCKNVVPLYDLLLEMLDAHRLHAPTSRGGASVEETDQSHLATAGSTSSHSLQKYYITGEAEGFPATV
The experiment can be described thus: competition binding assay against a model linear peptide sequence (estrogen receptor-coactivator interaction), ER alpha. On the procedure: (§1) The synthetic helicormimetic peptides designed as antagonists of the estrogen receptor-coactivator interactions were tested in a competition binding assay (Lilly Research Labs) against a model linear peptide sequence. Activities are reported in the Table below in Ki values, with two of the best analogs labeled as PERM-1 and PERM-2, or Peptidomimetic Estrogen Receptor Modulators.

The target in a further experiment is ER beta (Homo sapiens, UniProt Q92731). The experiment can be described thus: competition binding assay against a model linear peptide sequence (estrogen receptor-coactivator interaction), ER beta. On the procedure: as §1
Where [1] appears, read: competition binding assay (Lilly Research Labs), read-out: Ki ER α.
The mark [2] stands for this setting: competition binding assay (Lilly Research Labs), read-out: Ki ER β.

pKi: −log10 of the molar value. Read-outs that look alike come from different tables or passages of the source. Positions of bridges follow the written chain, without caps; N, C: chain ends. Non-standard residues stand in square brackets, D forms with d. Residues, ends and D or L forms follow the SMILES beside them. dPen = CC(C)(S)[C@@H](N)C(=O)O; Pen = CC(C)(S)[C@H](N)C(=O)O; d(hCys) = N[C@H](CCS)C(=O)O; Aib = CC(C)(N)C(=O)O

Broadly, the pKi is the Ki on a negative log10 scale, so that one unit is a factor of ten.

Sequence of ER beta (Q92731 whole entry): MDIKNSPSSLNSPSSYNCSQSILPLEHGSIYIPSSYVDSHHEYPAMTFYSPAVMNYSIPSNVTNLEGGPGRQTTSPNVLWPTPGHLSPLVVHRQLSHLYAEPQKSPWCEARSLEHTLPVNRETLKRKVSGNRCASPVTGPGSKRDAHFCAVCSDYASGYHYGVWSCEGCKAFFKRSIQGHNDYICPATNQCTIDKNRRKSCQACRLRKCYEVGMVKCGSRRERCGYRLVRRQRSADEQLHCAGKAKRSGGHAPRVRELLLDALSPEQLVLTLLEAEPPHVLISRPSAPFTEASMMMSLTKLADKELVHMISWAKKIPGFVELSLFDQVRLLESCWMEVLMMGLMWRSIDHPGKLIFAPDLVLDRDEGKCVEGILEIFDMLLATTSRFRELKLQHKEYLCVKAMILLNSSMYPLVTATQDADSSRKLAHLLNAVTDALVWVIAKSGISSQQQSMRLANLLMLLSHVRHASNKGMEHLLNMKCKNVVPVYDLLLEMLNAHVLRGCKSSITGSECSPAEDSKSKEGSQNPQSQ

In the case of `CC(C)C[C@H](NC(=O)[C@H](CC(C)C)NC(=O)[C@H](CCCNC(=N)N)NC(=O)[C@H]1CSSC[C@H](NC(=O)[C@@H](N)CCCCN)C(=O)N[C@@H](CC(C)C)C(=O)N1)C(=O)N[C@@H](CCC(N)=O)C(N)=O` [AKG-I-63, H-Lys-cyclo(Cys-Leu-D-Cys)-Arg-Leu-Leu-Gln-NH2] (H-KCL[dC]RLLQ-NH2; disulfide 2-4), the pKi on ER alpha (setting [1]) is 5.66; on ER beta (setting [2]), 5.10.

On to `CC(C)C[C@H](NC(=O)[C@H](CC(C)C)NC(=O)[C@H](CCCNC(=N)N)NC(=O)[C@H]1CSSC[C@@H](NC(=O)[C@@H](N)CCCCN)C(=O)N[C@@H](CC(C)C)C(=O)N1)C(=O)N[C@@H](CCC(N)=O)C(N)=O` [AKG-I-64, H-Lys-cyclo(D-Cys-Leu-D-Cys)-Arg-Leu-Leu-Gln-NH2] (H-K[dC]L[dC]RLLQ-NH2; disulfide 2-4), for which the values for the pKi at ER alpha (setting [1]) and at ER beta (setting [2]) were 5.74 and 5.28, respectively.

For `CC[C@H](C)[C@@H]1NC(=O)[C@H](NC(=O)[C@@H](N)CCCCN)CSSC[C@@H](C(=O)N[C@@H](CCCNC(=N)N)C(=O)N[C@@H](CC(C)C)C(=O)N[C@@H](CC(C)C)C(=O)N[C@@H](CCC(N)=O)C(N)=O)NC(=O)[C@H](CC(C)C)NC1=O` [AML-I-48/4, H-Lys-cyclo (D-Cys-Ile-Leu-Cys)-Arg-Leu-Leu-Gln-NH2] (H-K[dC]ILCRLLQ-NH2; disulfide 2-5), at ER alpha (from Ki values against ER alpha and ER beta), the “selectivity ER alpha versus ER beta” value was “exhibits selectivity against the ER alpha receptor”. For the same molecule, the pKi on ER alpha (read-out: Ki value against ER alpha) was 7.60; on ER beta (setting [2]), 6.41; on ER beta (read-out: Ki value against ER beta) it was ~6.41.

As to `CC[C@H](C)[C@@H]1NC(=O)[C@@H](NC(=O)[C@@H](N)CCCCN)CSC[C@@H](C(=O)N[C@@H](CCCNC(=N)N)C(=O)N[C@@H](CC(C)C)C(=O)N[C@@H](CC(C)C)C(=O)N[C@@H](CCC(N)=O)C(N)=O)NC(=O)[C@H](CC(C)C)NC1=O` [AKG-I-39, H-Lys-cyclo (Ala-Ile-Leu-Ala)- Arg-Leu-Leu-Gln-NH2, Lanthionine], the negative-log Ki (pKi) at ER alpha (setting [1]) was 5.93; on ER beta (setting [2]) it was 4.81.

In the case of `CC[C@H](C)[C@@H]1NC(=O)[C@H](NC(=O)[C@@H](N)CCCNC(=N)N)C(C)(C)SSC[C@@H](C(=O)N[C@@H](CCCNC(=N)N)C(=O)N[C@@H](CC(C)C)C(=O)N[C@@H](CC(C)C)C(=O)N[C@@H](CCC(N)=O)C(N)=O)NC(=O)[C@H](CC(C)C)NC1=O` [AKG-II-9, H-Arg-cyclo (D-Pen-Ile-Leu-Cys)-Arg-Leu-Leu-Gln-NH2] (H-R[dPen]ILCRLLQ-NH2; disulfide 2-5), the pKi is 6.77 at ER alpha (setting [1]) and 6.03 on ER beta (setting [2]).

Take `CC[C@H](C)[C@@H]1NC(=O)[C@H](NC(=O)[C@@H](N)CCCCN)CSSC[C@H](C(=O)N[C@@H](CCCNC(=N)N)C(=O)N[C@@H](CC(C)C)C(=O)N[C@@H](CC(C)C)C(=O)N[C@@H](CCC(N)=O)C(N)=O)NC(=O)[C@H](CC(C)C)NC1=O` [AKG-I-61, H-Lys-cyclo(D-Cys-Ile-Leu-D-Cys)-Arg-Leu-Leu-Gln-NH2] (H-K[dC]IL[dC]RLLQ-NH2; disulfide 2-5): the values for the pKi at ER alpha (setting [1]) and on ER beta (setting [2]) were 6.03 and 5.41, respectively.

On to `CC[C@H](C)[C@@H]1NC(=O)[C@H](CC(C)C)NC(=O)[C@H](NC(=O)[C@@H](N)CCCNC(=N)N)CSSC[C@@H](C(=O)N[C@@H](CCCNC(=N)N)C(=O)N[C@@H](CC(C)C)C(=O)N[C@@H](CC(C)C)C(=O)N[C@@H](CCC(N)=O)C(N)=O)NC1=O` [AKG-II-1, H-Arg-cyclo (D-Cys-Leu-Ile-Cys)-Arg-Leu-Leu-Gln-NH2] (H-R[dC]LICRLLQ-NH2; disulfide 2-5), for which the results for the negative-log Ki (pKi) on ER alpha (setting [1]) and on ER beta (setting [2]) were 7.89 and 6.67, respectively.

For the molecule `CC[C@H](C)[C@@H]1NC(=O)[C@H](NC(=O)[C@H](CC(C)C)NC(=O)[C@H](CC(C)C)NC(=O)[C@@H](N)CCCCN)CSSC[C@@H](C(=O)N[C@@H](CCCNC(=N)N)C(=O)N[C@@H](CC(C)C)C(=O)N[C@@H](CC(C)C)C(=O)N[C@@H](CCC(N)=O)C(N)=O)NC(=O)[C@H](CC(C)C)NC1=O` [AKG-I-46, H-Lys-Leu-Leu-cyclo(D-Cys-Ile-Leu-Cys)-Arg-Leu-Leu-Gln-NH2] (H-KLL[dC]ILCRLLQ-NH2; disulfide 4-7), the negative-log Ki (pKi) on ER alpha (setting [1]) is 6.40; on ER beta (setting [2]) it was 5.70.

On to `CC[C@H](C)[C@@H]1NC(=O)[C@H](NC(=O)[C@H](N)CCCCN)CSSC[C@@H](C(=O)N[C@@H](CCCNC(=N)N)C(=O)N[C@@H](CC(C)C)C(=O)N[C@@H](CC(C)C)C(=O)N[C@@H](CCC(N)=O)C(N)=O)NC(=O)[C@H](CC(C)C)NC1=O` [AKG-I-28, H-D-Lys-cyclo (D-Cys-Ile-Leu-Cys)-Arg-Leu-Leu-Gln-NH2] (H-[dK][dC]ILCRLLQ-NH2; disulfide 2-5), for which the negative logarithm of the Ki (pKi) at ER alpha (setting [1]) was 6.66; at ER beta (setting [2]) it was 5.72.

For the molecule `CC[C@H](C)[C@@H]1NC(=O)[C@H](NC(=O)[C@H](CCCCN)NC(=O)C(C)(C)N)CSSC[C@@H](C(=O)N[C@@H](CCCNC(=N)N)C(=O)N[C@@H](CC(C)C)C(=O)N[C@@H](CC(C)C)C(=O)N[C@@H](CCC(N)=O)C(N)=O)NC(=O)[C@H](CC(C)C)NC1=O` [AML-I-83/4, Aib-Lys-cyclo(D-Cys-Ile-Leu-Cys)-Arg-Leu-Leu-Gln-NH2] (H-[Aib]K[dC]ILCRLLQ-NH2; disulfide 3-6; N-terminus assumed), the pKi on ER alpha (setting [1]) is 6.89; on ER beta (setting [2]), 5.85.

`CC[C@H](C)[C@@H]1NC(=O)[C@H](NC(=O)[C@@H](N)CCCNC(=N)N)CSSC(C)(C)[C@@H](C(=O)N[C@@H](CCCNC(=N)N)C(=O)N[C@@H](CC(C)C)C(=O)N[C@@H](CC(C)C)C(=O)N[C@@H](CCC(N)=O)C(N)=O)NC(=O)[C@H](CC(C)C)NC1=O` [AKG-II-10, H-Arg-cyclo (D-Cys-Ile-Leu-Pen)-Arg-Leu-Leu-Gln-NH2] (H-R[dC]IL[Pen]RLLQ-NH2; disulfide 2-5): the results for the pKi on ER alpha (setting [1]) and on ER beta (setting [2]) were 7.06 and 5.72, respectively.

On to `CC[C@H](C)[C@@H]1NC(=O)[C@H](NC(=O)[C@@H](N)CCCNC(=N)N)C(C)(C)SSC(C)(C)[C@@H](C(=O)N[C@@H](CCCNC(=N)N)C(=O)N[C@@H](CC(C)C)C(=O)N[C@@H](CC(C)C)C(=O)N[C@@H](CCC(N)=O)C(N)=O)NC(=O)[C@H](CC(C)C)NC1=O` [AKG-II-11, H-Arg-cyclo(D-Pen-Ile-Leu-Pen)-Arg-Leu-Leu-Gln-NH2] (H-R[dPen]IL[Pen]RLLQ-NH2; disulfide 2-5), for which the negative logarithm of the Ki (pKi) on ER alpha (setting [1]) was 7.11; on ER beta (setting [2]) it was 5.40.

For the molecule `CC[C@H](C)[C@@H]1NC(=O)[C@H](NC(=O)[C@H](CCCCN)NC(C)=O)CSSC[C@@H](C(=O)N[C@@H](CCCNC(=N)N)C(=O)N[C@@H](CC(C)C)C(=O)N[C@@H](CC(C)C)C(=O)N[C@@H](CCC(N)=O)C(N)=O)NC(=O)[C@H](CC(C)C)NC1=O` [AML-I-71/2, Ac-Lys-cyclo(D-Cys-Ile-Leu-Cys)-Arg-Leu-Leu-Gln-NH2] (Ac-K[dC]ILCRLLQ-NH2; disulfide 2-5), the results for the pKi on ER alpha (setting [1]) and on ER beta (setting [2]) were 6.92 and 5.11, respectively.

Regarding `CC[C@H](C)[C@@H]1NC(=O)[C@H](CC(C)C)NC(=O)[C@@H](NC(=O)[C@@H](N)CCCCN)CSSC[C@H](C(=O)N[C@@H](CCCNC(=N)N)C(=O)N[C@@H](CC(C)C)C(=O)N[C@@H](CC(C)C)C(=O)N[C@@H](CCC(N)=O)C(N)=O)NC1=O` [AKG-I-59, H-Lys-cyclo(Cys-Leu-Ile-D-Cys)-Arg-Leu-Leu-Gln-NH2] (H-KCLI[dC]RLLQ-NH2; disulfide 2-5), the values for the pKi on ER alpha (setting [1]) and at ER beta (setting [2]) were 5.68 and 4.77, respectively.

`CC(C)C[C@H](NC(=O)[C@H](CC(C)C)NC(=O)[C@H](CCC(N)=O)NC(=O)[C@H](CCC(=O)O)NC(=O)[C@H](CC(C)C)NC(=O)CC1O[C@H](CO)[C@@H](O)[C@H](O)[C@@H]1O)C(=O)O` (stereo partly drawn) [AML-I-31, Mannosylacetvl-Leu-Glu-Gln-Leu-Leu-OH]: the pKi at ER beta (setting [2]) was 3.47.

`CC[C@H](C)[C@@H]1NC(=O)[C@H](NC(=O)[C@@H](N)CCCNC(=N)N)CCSSC[C@@H](C(=O)N[C@@H](CCCNC(=N)N)C(=O)N[C@@H](CC(C)C)C(=O)N[C@@H](CC(C)C)C(=O)N[C@@H](CCC(N)=O)C(N)=O)NC(=O)[C@H](CC(C)C)NC1=O` [AKG-II-4, H-Arg-cyclo (DHomoCys-lIe-Leu-Cys)- Arg-Leu-Leu-Gln-NH2] (H-R[d(hCys)]ILCRLLQ-NH2; disulfide 2-5): the pKi at ER alpha (setting [1]) was 7.46; on ER beta (setting [2]), 6.23.

For the molecule `CC[C@H](C)[C@H](NC(=O)[C@H](CCCCN)NC(=O)[C@@H](N)CCCCN)C(=O)N[C@@H](CC(C)C)C(=O)N[C@@H](Cc1c[nH]cn1)C(=O)N[C@@H](CCCNC(=N)N)C(=O)N[C@@H](CC(C)C)C(=O)N[C@@H](CC(C)C)C(=O)N[C@@H](CCC(N)=O)C(N)=O` [AML-I-61/2, H-Lys-Lys-Ile-Leu-His-Arg-Leu-Leu-Gln-NH2] (H-KKILHRLLQ-NH2), the pKi was 6.77 at ER alpha (setting [1]) and 5.55 on ER beta (setting [2]).
